Reference: article PMC10615177 (ACS infectious diseases, 2023)
In brackets after ≈: the same amount, converted by molar mass. Like-named read-outs stand apart in the source and are kept apart here.

Columns and labels:
[1] = tested on: M. abscessus rough variant; assay: microbe, parasite or virus in culture; format: cell-based
[2] = tested on: T. cruzi Dm28c epimastigotes; assay: T. cruzi epimastigote growth inhibition; format: cell-based, Trypanosoma cruzi; conditions: read-out: T. cruzi IC50 (EPI)
[3] = target: M. tuberculosis MmpL3 (MtMmpL3) (Mycobacterium tuberculosis, UniProt P9WJV5); assay: Surface plasmon resonance binding to MmpL3
Sequence of M. tuberculosis MmpL3 (MtMmpL3) (P9WJV5 whole entry): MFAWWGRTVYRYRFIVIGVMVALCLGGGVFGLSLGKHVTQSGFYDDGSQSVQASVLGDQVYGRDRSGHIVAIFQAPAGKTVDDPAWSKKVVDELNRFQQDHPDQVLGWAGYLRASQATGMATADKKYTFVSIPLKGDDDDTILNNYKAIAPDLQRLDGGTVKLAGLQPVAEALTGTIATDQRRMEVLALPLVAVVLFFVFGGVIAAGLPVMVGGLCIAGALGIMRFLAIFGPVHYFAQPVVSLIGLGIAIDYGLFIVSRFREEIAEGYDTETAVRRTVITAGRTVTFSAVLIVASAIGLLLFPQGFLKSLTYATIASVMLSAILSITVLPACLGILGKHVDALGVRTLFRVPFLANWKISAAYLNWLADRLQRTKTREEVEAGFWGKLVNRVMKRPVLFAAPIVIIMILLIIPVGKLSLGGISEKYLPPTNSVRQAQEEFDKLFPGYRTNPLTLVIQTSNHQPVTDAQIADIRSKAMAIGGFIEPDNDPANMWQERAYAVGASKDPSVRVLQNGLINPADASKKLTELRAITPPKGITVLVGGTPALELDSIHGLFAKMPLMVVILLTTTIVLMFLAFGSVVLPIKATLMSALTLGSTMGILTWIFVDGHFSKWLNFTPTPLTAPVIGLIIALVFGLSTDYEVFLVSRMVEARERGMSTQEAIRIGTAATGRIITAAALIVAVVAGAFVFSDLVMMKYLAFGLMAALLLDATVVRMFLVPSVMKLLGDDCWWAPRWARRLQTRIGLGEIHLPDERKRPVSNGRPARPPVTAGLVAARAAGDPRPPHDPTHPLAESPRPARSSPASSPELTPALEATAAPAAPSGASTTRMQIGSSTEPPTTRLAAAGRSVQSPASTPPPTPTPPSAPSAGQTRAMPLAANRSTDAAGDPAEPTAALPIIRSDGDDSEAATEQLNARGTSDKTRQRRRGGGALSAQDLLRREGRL

[4] = tested on: M. tuberculosis Erdman; assay: M. tuberculosis Erdman growth inhibition; format: cell-based, Mycobacterium tuberculosis
[5] = tested on: T. brucei bloodstream forms; assay: T. brucei bloodstream form growth inhibition; format: cell-based, Trypanosoma brucei; conditions: read-out: T. brucei IC50
[6] = tested on: U2OS host cells; assay: U2OS host cell growth inhibition; conditions: read-out: T. cruzi CC50 (U20S)
[7] = DSC of DSPG bilayers with inhibitor; format: physicochemical; conditions: for Tm (main transition) / ΔH / ΔT1/2: 10 wt % inhibitor, PBS pH 7.4, heating; for Broadening of main transition peak ΔΤ1/2 compared to pure DSPG / Decrease of Tm compared to DSPG alone: heating
[8] = tested on: Bacillus subtilis; assay: B. subtilis growth inhibition; format: cell-based; conditions: read-out: Bs IC50
[9] = tested on: E. coli; assay: E. coli growth inhibition; format: cell-based, Escherichia coli; conditions: for IC50: read-out: Ec IC50
[10] = tested on: M. abscessus smooth variant; assay: microbe, parasite or virus in culture; format: cell-based
[11] = tested on: L. donovani promastigotes; assay: L. donovani promastigote growth inhibition; format: cell-based, Leishmania donovani; conditions: read-out: L. donovani IC50
[12] = tested on: T. cruzi Dm28c intracellular amastigotes; assay: T. cruzi intracellular amastigote inhibition; format: cell-based, Trypanosoma cruzi; conditions: read-out: T. cruzi IC50 (PAR)
[13] = tested on: M. tuberculosis H37Rv; assay: M. tuberculosis H37Rv growth inhibition; format: cell-based, Mycobacterium tuberculosis
[14] = tested on: M. tuberculosis HN878; assay: M. tuberculosis HN878 growth inhibition; format: cell-based, Mycobacterium tuberculosis; conditions: for Mtb HN878 MIC: visual inspection
[15] = DSC of DMPC bilayers with inhibitor; format: physicochemical; conditions: for Tm (main transition) / ΔH / ΔT1/2: 10 wt % inhibitor, PBS pH 7.4, heating
[16] = tested on: M. smegmatis; assay: M. smegmatis cell growth inhibition; format: cell-based, Mycobacterium smegmatis
[17] = tested on: HepG2 (human hepatocellular carcinoma) cells; assay: HepG2 cell line viability; conditions: 20 μM
[18] = tested on: Plasmodium falciparum asexual blood stages; assay: P. falciparum asexual blood stage; format: cell-based
[19] = tested on: L. mexicana promastigotes; assay: L. mexicana promastigote growth inhibition; format: cell-based, Leishmania mexicana
[20] = in vitro; conditions: human
[21] = in vitro; conditions: human; remark: listed apart in the source
[22] = read-out: KD, 1:1 model, 1:1 binding model, from ratio of rate constants
[23] = read-out: KD, 2-state, two-state model, from rate constants
[24] = intracellular amastigotes in U2OS host cells
[25] = read-out: Mtb HN878 IC50, dose-response curves
[26] = read-out: Ms IC50, M. smegmatis

SMILES | Ma(R) MIC [1] [µM] | IC50 ([2]; epimastigotes) [µM] | koff ([3]; 1:1 Langmuir binding model) [s⁻¹] | Kd [3, 22] [µM] | Kd [3, 23] [µM] | ka1 ([3]; two-state model) [M⁻¹ s⁻¹] | ka2 ([3]; two-state model) [s⁻¹] | kd1 ([3]; two-state model) [s⁻¹] | kd2 ([3]; two-state model) [s⁻¹] | Mtb Erdman MIC [4] [µM] | IC50 ([5]; bloodstream forms) [nM] | CC50 [6] [nM] | Tm (main transition) [7] [°C] | ΔH [7] [kJ/mol] | ΔT1/2 [7] [°C] | Broadening of main transition peak ΔΤ1/2 compared to pure DSPG [7] | Decrease of Tm compared to DSPG alone [7] | IC50 [9] [µM] | Ma(S) MIC [10] [µM] | IC50 ([11]; promastigotes) [µM] | also measured
CCCCCCC1(NCCNCC=C(C)CCC=C(C)C)C2CC3CC(C2)CC1C3 (stereo not shown) [Compound 8f, N-(3,7-dimethylocta-2,6-dien-1-yl)-N´-(2-hexyladamantan-2-yl)ethane-1,2-diamine] | 12 | 8.2 ± 0.4 | 0.2964 | 67 | 81 | 4642 | 0.008637 | 0.4552 | 0.03992 | 12 | 980 ± 90 | 4100 ± 1000 | 49.1 | 36.6 | 1.7 | 0.2–1.6 °C | ~ 5 °C | 9.2 | 12 | 8.8 ± 0.4 | IC50 [8]: 1000 nM; IC50 [12, 24]: 1300 ± 70 nM; Mtb H37Rv MIC [13]: 12 µM; IC50 [14, 25]: 3.4 ± 0.6 µM; Mtb HN878 MIC [14]: 3 µM; Tm (main transition) [15]: 13.8 °C; ΔH [15]: 24.6 kJ/mol; ΔT1/2 [15]: 5.1 °C; Broadening of main transition peak ΔΤ1/2 compared to pure DMPC ([15]; heating): 4.4 °C; Decrease of Tm compared to DMPC without inhibitor ([15]; heating): ~9.7 °C; IC50 [16, 26]: 4.7 µM
CC(C)=CCCC(C)=CCNCCNC(C)(C)C12CC3CC(CC(C3)C1)C2 [Compound 12, N-(3,7-dimethylocta-2,6-dien-1-yl)-N´-(2-(adamantan-1-yl)propan-2-yl)ethane-1,2-diamine] | 12.9 | 2.4 ± 0.7 | 0.6646 | 106 | 120 | 7245 | 0.007539 | 1.05 | 0.03558 | 13 | 1400 ± 30 | 1400 ± 200 | 49.8 | 55.8 | 2.4 | 0.2–1.6 °C | 3–4 °C | 8.9 | 12.9 | 2.3 ± 0.1 | HepG2 % viability @ 20 μM [17]: 100%; IC50 ([18]; read-out: PfABS IC50 (μM ± S.E.), asexual blood stages): 0.77 ± 0.1 µM; IC50 [12, 24]: 560 ± 900 nM; Mtb H37Rv MIC [13]: 13 µM; IC50 [14, 25]: 3.4 ± 0.6 µM; Mtb HN878 MIC [14]: 3 µM; Tm (main transition) [15]: 19.8 °C; ΔH [15]: 17.8 kJ/mol; ΔT1/2 [15]: 4.1 °C; Decrease of Tm compared to DMPC without inhibitor ([15]; heating): 3–4 °C; IC50 [16, 26]: 15 ± 2 µM; IC50 ([19]; read-out: L. mexicana IC50, promastigotes): 4.7 ± 0.2 µM
CC(C)=CCCC(C)=CCNC(=O)CNC1(C)C2CC3CC(C2)CC1C3 (stereo not shown) [Compound 14b, N-(3,7-dimethylocta-2,6-dien-1-yl)-2-((2-methyl-2-adamantanyl)amino)acetamide] |  |  |  |  |  | 1917 | 0.009268 | 1.363 | 0.02741 |  |  |  |  |  |  |  |  |  |  |  | IC50 ([2]; Trypanosoma cruzi): 18 ± 4 µM; koff [3]: 0.751 s⁻¹; kon [3]: 1760 M⁻¹ s⁻¹; Kd ([3]; KD, 1:1 model, 1:1 binding model, from ratio of rate constants): 426 µM; Kd ([3]; KD, 2-state, two-state model, from rate constants): 531 µM; MIC ([4]; Mycobacterium tuberculosis, ERDMAN, read-out: Mtb Erdman MIC): 20 µM (≈ 7.17 µg/mL); IC50 ([5]; Trypanosoma brucei): 6600 ± 30 nM; CC50 [20]: 7.2 ± 0.9 µM; viability at 20 µM [21]: 94%; Ec IC50 [9]: No inhibition; IC50 ([18]; Plasmodium falciparum, read-out: PfABS IC50 (μM ± S.E.), asexual blood stages): 6.47 ± 0.65 µM; IC50 ([11]; Leishmania donovani): 11 ± 0.9 µM; IC50 ([12]; Trypanosoma cruzi, U2OS): 2300 ± 200 nM; MIC ([13]; Mycobacterium tuberculosis, H37RV, read-out: Mtb H37Rv MIC): 30 µM (≈ 10.8 µg/mL); IC50 ([14]; Mycobacterium tuberculosis, HN878, read-out: Mtb HN878 IC50, dose-response curves): 4.9 ± 0.1 µM; MIC ([14]; Mycobacterium tuberculosis, HN878, read-out: Mtb HN878 MIC): 6.25 µM (≈ 2.24 µg/mL); IC50 ([16]; Mycolicibacterium smegmatis, read-out: Ms IC50, M. smegmatis): 9 µM; IC50 ([19]; Leishmania mexicana, read-out: L. mexicana IC50, promastigotes): 2.4 ± 0.7 µM
